# Data taken from ChEMBL document CHEMBL1153028, “QSAR study on maximal inhibition (Imax) of quaternary ammonium antagonists for S-(-)-nicotine-evoked dopamine release from dopaminergic nerve terminals in rat striatum” (Bioorg Med Chem, 2009).
# Numbered stars: 1 amine (or outer) side, 2 acyl side, 3 side chain; on linkers, the order of the positions; unused ones are H or OH. Bridge positions count the residues as written; N and C are the ends. Peptide text beside a SMILES is read from it. X1 = NC(=O)[C@@H](CN[*:2])CS[*:1]
# Experiments:
# [1] = Antagonist activity at nAChR in Sprague-Dawley rat striatal slices assessed as inhibition of S(-)-nicotine-evoked [3H]dopamine overflow at 100 uM by liquid scintillation counting; assay type: functional
# [2] = biological target: Neuronal acetylcholine receptor subunit alpha-6 (Mus musculus) (UniProt Q9R0W9); assay: Displacement of [3H]epibatidine from nAChRalpha6 in mouse brain by autoradiography; assay type: tissue-based
# Chain of Neuronal acetylcholine receptor subunit alpha-6 (Mus musculus) (Q9R0W9 whole entry): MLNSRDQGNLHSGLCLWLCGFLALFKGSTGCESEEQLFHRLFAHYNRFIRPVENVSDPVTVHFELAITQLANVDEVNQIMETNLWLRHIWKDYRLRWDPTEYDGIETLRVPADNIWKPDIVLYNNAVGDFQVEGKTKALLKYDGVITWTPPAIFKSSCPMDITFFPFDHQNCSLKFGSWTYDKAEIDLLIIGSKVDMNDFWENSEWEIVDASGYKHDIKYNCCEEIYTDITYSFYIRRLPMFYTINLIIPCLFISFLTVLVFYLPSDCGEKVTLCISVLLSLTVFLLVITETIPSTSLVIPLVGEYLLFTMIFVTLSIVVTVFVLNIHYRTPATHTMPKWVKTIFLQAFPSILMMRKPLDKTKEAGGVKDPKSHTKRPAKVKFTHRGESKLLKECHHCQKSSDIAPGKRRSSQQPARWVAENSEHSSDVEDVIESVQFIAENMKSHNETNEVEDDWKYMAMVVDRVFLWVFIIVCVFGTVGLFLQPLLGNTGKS
SMILES,Imax [1],Imax [2]
CCCCCCC[n+]1cccc([C@@H]2CCCN2C)c1.[I-],75%,
[Br-].[Br-].c1ccc2c(c1)ccc[n+]2CCCCCCCCC[n+]1cccc2ccccc21,58%,
[I-].[I-].c1ccc2c[n+](CCCCCCCC[n+]3ccc4ccccc4c3)ccc2c1,74%,
Cc1ccc[n+](CCCCCCC[n+]2cccc(C)c2)c1.[Br-].[Br-],54%,
CNC1CCCc2ccncc21.Cl (configuration not stated),57%,
CN(C)C1CCCc2ccncc21.Cl (configuration not stated),68%,
CCCCCCCCCCC[n+]1ccc2c(c1)[C@H]1[C@@H](CC2)CCN1C.[I-],72%,
Cc1ccc[n+](CCCCCC[n+]2cccc(C)c2)c1.[I-].[I-],7%,
CCCCCCCCCCCC[n+]1ccc2c(c1)[C@H]1[C@@H](CC2)CCN1C.[I-],62%,
[I-].[I-].c1ccc2c[n+](CCCCCCCCCC[n+]3ccc4ccccc4c3)ccc2c1,65%,
[I-].[I-].c1ccc2c(c1)ccc[n+]2CCCCCC[n+]1cccc2ccccc21,55%,
CCCCCCCCCC[n+]1cccc(C)c1.[I-],73%,
CCCCCCCC[n+]1cccc([C@@H]2CCCN2C)c1.[I-],88%,
CCCCCCCC[n+]1ccc2c(c1)[C@H]1[C@@H](CC2)CCN1C.[I-],60%,
CN1CCC[C@@H]1c1ccc[n+](CCCCCCCCCCCC[n+]2cccc([C@@H]3CCCN3C)c2)c1.[Br-].[Br-],38%,
CCCCCCCCCC[n+]1cccc2c1CC[C@@H]1CCN(C)[C@H]21.[I-],93%,
CCCCCCCCC[n+]1cccc2c1CC[C@@H]1CCN(C)[C@H]21.[I-],86%,
CCCCCCCCCC[n+]1ccc2c(c1)[C@H]1[C@@H](CC2)CCN1C.[I-],67%,
[Br-].[Br-].c1cc[n+](CCCCCCCCCCCC[n+]2ccccc2)cc1,91%,
CCCCCC[n+]1cccc([C@@H]2CCCN2C)c1.[I-],80%,
CCCC[n+]1ccccc1.[I-],2%,
CNC1(C)C2CCC(C2)C1(C)C (configuration not stated) [MECAMYLAMINE],91%,
CCCCCCCCCCCCCCC[n+]1ccccc1.[I-],58%,
C=CCCCCCCCC[n+]1cccc([C@@H]2CCCN2C)c1.[Br-],72%,

SMILES,Imax [1],Imax [2]
CCC[n+]1cccc([C@@H]2CCCN2C)c1.[I-],58%,
CCCC[n+]1cccc([C@@H]2CCCN2C)c1.[I-],80%,
Cl.NC1CCCc2ncccc21 (configuration not stated),69%,
[I-].[I-].c1ccc2c[n+](CCCCCC[n+]3ccc4ccccc4c3)ccc2c1,47%,
CC(C)C[C@@H]1NC(=O)[C@H](CC(N)=O)NC(=O)[C@H](CO)NC(=O)[C@H](Cc2cnc[nH]2)NC(=O)[C@H](CCC(=O)O)NC(=O)[C@H](CC(C)C)NC(=O)[C@H](Cc2cnc[nH]2)NC(=O)[C@@H]2CSSC[C@H](NC(=O)CN)C(=O)N[C@@H](CSSC[C@@H](C(N)=O)CNC1=O)C(=O)N[C@@H](CO)C(=O)N[C@@H](CC(N)=O)C(=O)N1CCC[C@H]1C(=O)N[C@@H](C(C)C)C(=O)N2 (H-GCCSNPVCHLEHSNL; disulfide 2-8; linker 3-C via X1),,62%
C=CCCCCCC[n+]1cccc([C@@H]2CCCN2C)c1.[Br-],87%,
CCCCCCCC[n+]1cccc2c1CC[C@@H]1CCN(C)[C@H]21.[I-],88%,
CCCCCCCCC[n+]1cccc([C@@H]2CCCN2C)c1.[I-],100%,
CCCCCCCCCCCCCCCCCCCC[n+]1ccccc1.[Br-],60%,
CCCC/C=C/CC[n+]1cccc([C@@H]2CCCN2C)c1.[Br-],79%,
CCCCCCCCCCCC[n+]1cccc2c1CC[C@@H]1CCN(C)[C@H]21.[I-],25%,
CCCC/C=C\CC[n+]1cccc([C@@H]2CCCN2C)c1.[Br-],83%,
CN(C)C1CCCc2ncccc21.Cl (configuration not stated),53%,
[Br-].[Br-].c1ccc2c(c1)ccc[n+]2CCCCCCCCCCCC[n+]1cccc2ccccc21,52%,
CCCCC#CCC[n+]1cccc([C@@H]2CCCN2C)c1.[Br-],47%,
CCCCCCCCCCCC[n+]1cccc(C)c1.[I-],63%,
CCCCCCC#CCC[n+]1cccc([C@@H]2CCCN2C)c1.[Br-],29%,
C[n+]1ccccc1.[I-],0%,
[Br-].[Br-].c1ccc2c[n+](CCCCCCCCC[n+]3ccc4ccccc4c3)ccc2c1,0%,
CCC[n+]1ccccc1.[I-],22%,
C=CCCCCCCCCC[n+]1cccc([C@@H]2CCCN2C)c1.[Br-],87%,
Cc1ccc[n+](CCCCCCCC[n+]2cccc(C)c2)c1.[I-].[I-],53%,
[Br-].[Br-].c1cc[n+](CCCCCCCCC[n+]2ccccc2)cc1,28%,
[I-].[I-].c1cc[n+](CCCCCCCCCC[n+]2ccccc2)cc1,27%,

SMILES,Imax [1],Imax [2]
CCCCC[n+]1ccccc1.[I-],44%,
CC[n+]1ccccc1.[I-],0%,
Cc1ccc[n+](CCCCCCCCCC[n+]2cccc(C)c2)c1.[I-].[I-],63%,
CCCCCCCCC[n+]1ccc2c(c1)[C@H]1[C@@H](CC2)CCN1C.[I-],56%,
[I-].[I-].c1ccc2c(c1)ccc[n+]2CCCCCCCCCC[n+]1cccc2ccccc21,76%,
CCCCCCCCCCCC[n+]1cccc([C@@H]2CCCN2C)c1.[I-],95%,
CNC1CCCc2ncccc21.Cl (configuration not stated),87%,
Cc1ccc[n+](CCCCCCCCC[n+]2cccc(C)c2)c1.[Br-].[Br-],63%,
Cc1ccc[n+](CCCCCCCCCCC[n+]2cccc(C)c2)c1.[Br-].[Br-],68%,
CCCCCCC[n+]1ccccc1.[I-],0%,
[I-].[I-].c1ccc2c(c1)ccc[n+]2CCCCCCCC[n+]1cccc2ccccc21,71%,
[Br-].[Br-].c1ccc2c[n+](CCCCCCCCCCCC[n+]3ccc4ccccc4c3)ccc2c1,53%,
CCCCC/C=C/CCC[n+]1cccc([C@@H]2CCCN2C)c1.[Br-],85%,
CCCCCCCCCCC[n+]1cccc2c1CC[C@@H]1CCN(C)[C@H]21.[I-],79%,
CN1CCC[C@H]1c1ccc[n+](Cc2ccccc2)c1.[Br-],0%,
Cl.NC1CCCc2ccncc21 (configuration not stated),56%,
Cc1ccc[n+](CCCCCCCCCCCC[n+]2cccc(C)c2)c1.[Br-].[Br-],78%,
CCCCCC[n+]1ccccc1.[I-],21%,
[Br-].[Br-].c1ccc2c[n+](CCCCCCCCCCC[n+]3ccc4ccccc4c3)ccc2c1,55%,
[I-].[I-].c1cc[n+](CCCCC[n+]2ccccc2)cc1,0%,
[I-].[I-].c1cc[n+](CCCCCCCC[n+]2ccccc2)cc1,0%,
CCCCCCCC[n+]1ccccc1.[I-],0%,
CN1CCC[C@H]1c1ccc[n+](C)c1.[I-],0%,
C=CC[n+]1cccc([C@@H]2CCCN2C)c1.[I-],0%,
